Assay results: ChEMBL document CHEMBL4325932, “Adaptable Small Ligand of CYP1 Enzymes for Use in Understanding the Structural Features Determining Isoform Selectivity” (ACS Med Chem Lett, 2018)

How the values were obtained:
Type in all cases: cell membranes
Cytochrome P450 1A1 = target: T1, Cytochrome P450 1A1 (Homo sapiens, UniProt P04798); experiment: Inhibition of recombinant human CYP1A1 expressed in Escherichia coli membranes co-expressing NADPH-P450 reductase assessed as reduction in ethoxyresorufin O-de-ethylation preincubated for 3 mins followed by NADPH addition and measured after 10 mins by fluorometric method
T1 sequence (P04798 whole entry): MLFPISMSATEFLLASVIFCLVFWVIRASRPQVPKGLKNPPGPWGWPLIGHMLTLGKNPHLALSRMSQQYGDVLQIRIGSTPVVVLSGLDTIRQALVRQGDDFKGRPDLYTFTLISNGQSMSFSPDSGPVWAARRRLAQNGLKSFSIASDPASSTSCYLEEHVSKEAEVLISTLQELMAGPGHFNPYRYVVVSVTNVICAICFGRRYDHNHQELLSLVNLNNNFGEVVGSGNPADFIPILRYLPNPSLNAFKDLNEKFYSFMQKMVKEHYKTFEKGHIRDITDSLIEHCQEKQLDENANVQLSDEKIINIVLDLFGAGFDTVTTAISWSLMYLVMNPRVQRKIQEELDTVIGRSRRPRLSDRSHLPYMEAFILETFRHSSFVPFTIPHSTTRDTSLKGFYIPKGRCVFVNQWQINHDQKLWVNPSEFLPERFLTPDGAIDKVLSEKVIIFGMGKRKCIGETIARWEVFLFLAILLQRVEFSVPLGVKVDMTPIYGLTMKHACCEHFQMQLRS

Homo sapiens [1] = organism: Homo sapiens; experiment: Selectivity ratio of IC50 for recombinant human CYP1A1 expressed in Escherichia coli membranes to IC50 for recombinant human CYP1A2 expressed in Escherichia coli membranes
Cytochrome P450 1B1 = target: T2, Cytochrome P450 1B1 (Homo sapiens, UniProt Q16678); experiment: Inhibition of recombinant human CYP1B1 expressed in Escherichia coli membranes co-expressing NADPH-P450 reductase assessed as reduction in ethoxyresorufin O-de-ethylation preincubated for 3 mins followed by NADPH addition and measured after 10 mins by fluorometric method
T2 sequence (Q16678 whole entry): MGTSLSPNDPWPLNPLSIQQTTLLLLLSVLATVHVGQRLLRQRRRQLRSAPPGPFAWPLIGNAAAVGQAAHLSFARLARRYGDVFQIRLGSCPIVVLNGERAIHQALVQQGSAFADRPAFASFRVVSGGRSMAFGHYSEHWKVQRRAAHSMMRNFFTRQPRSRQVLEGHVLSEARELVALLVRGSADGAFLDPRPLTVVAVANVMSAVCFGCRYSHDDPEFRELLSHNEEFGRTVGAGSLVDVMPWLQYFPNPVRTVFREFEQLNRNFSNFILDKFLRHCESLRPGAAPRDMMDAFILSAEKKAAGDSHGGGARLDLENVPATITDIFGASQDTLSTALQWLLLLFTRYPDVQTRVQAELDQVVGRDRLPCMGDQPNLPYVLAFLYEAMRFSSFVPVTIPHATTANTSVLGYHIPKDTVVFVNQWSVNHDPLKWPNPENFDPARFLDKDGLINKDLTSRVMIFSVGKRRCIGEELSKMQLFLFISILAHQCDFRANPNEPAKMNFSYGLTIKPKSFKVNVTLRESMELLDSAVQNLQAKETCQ

Homo sapiens [2] = organism: Homo sapiens; experiment: Selectivity ratio of IC50 for recombinant human CYP1A2 expressed in Escherichia coli membranes to IC50 for recombinant human CYP1B1 expressed in Escherichia coli membranes
Homo sapiens [3] = organism: Homo sapiens; experiment: Selectivity ratio of IC50 for recombinant human CYP1A1 expressed in Escherichia coli membranes to IC50 for recombinant human CYP1B1 expressed in Escherichia coli membranes
Cytochrome P450 1A2 = target: T3, Cytochrome P450 1A2 (Homo sapiens, UniProt P05177); experiment: Inhibition of recombinant human CYP1A2 expressed in Escherichia coli membranes co-expressing NADPH-P450 reductase assessed as reduction in ethoxyresorufin O-de-ethylation preincubated for 3 mins followed by NADPH addition and measured after 10 mins by fluorometric method
T3 sequence (P05177 whole entry): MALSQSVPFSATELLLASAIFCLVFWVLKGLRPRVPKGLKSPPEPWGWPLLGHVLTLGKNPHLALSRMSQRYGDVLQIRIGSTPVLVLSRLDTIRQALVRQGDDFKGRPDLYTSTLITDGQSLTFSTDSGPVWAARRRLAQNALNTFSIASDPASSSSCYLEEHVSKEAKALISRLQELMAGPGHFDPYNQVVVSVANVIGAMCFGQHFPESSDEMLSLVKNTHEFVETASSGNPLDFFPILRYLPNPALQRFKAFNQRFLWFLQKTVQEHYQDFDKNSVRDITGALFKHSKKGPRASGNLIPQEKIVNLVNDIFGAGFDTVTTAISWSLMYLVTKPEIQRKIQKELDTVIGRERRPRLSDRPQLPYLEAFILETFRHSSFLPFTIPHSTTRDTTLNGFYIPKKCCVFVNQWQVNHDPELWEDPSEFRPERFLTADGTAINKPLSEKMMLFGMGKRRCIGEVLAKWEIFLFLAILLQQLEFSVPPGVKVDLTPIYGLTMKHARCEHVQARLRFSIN

| IC50 (Cytochrome P450 1A1) | Ratio IC50 (Homo sapiens [1]) | IC50 (Cytochrome P450 1B1) | Ratio IC50 (Homo sapiens [2]) | Ratio IC50 (Homo sapiens [3]) | IC50 (Cytochrome P450 1A2) | Structure (SMILES) |
| --- | --- | --- | --- | --- | --- | --- |
| 55 nM | – | – | – | – | – | O=c1cc(-c2ccccc2)oc2c1ccc1ccccc12 [ALPHA-NAPHTHOFLAVONE] |
| 41 nM | 27.3 | 4 nM | 0.4 | 10.3 | 1.5 nM | COc1cc(/C=C/c2cccs2)cc(OCCn2ccnc2)c1 |
| – | 5.5 | – | 5.5 | 30.5 | – | COc1cc(/C=C/c2cccs2)cc(OC)c1 |
